This passage reports remaining binding results from US10870647B2, “Imidazopyridine derivative, method for preparing same, and pharmaceutical composition containing same as active ingredient for preventing or treating cancer” (DAEGU-GYEONGBUK MEDICAL INNOVATION FOUNDATION, priority 2016, dated 2020).

Each structure is given as a SMILES string.

What all share (assay): Kinase selectivity, scanMAX Kinase assay panel (DiscoverX), % control at 1 uM
Holding throughout (format): binding

The target in experiment [1] is T1, scanMAX Kinase assay panel (Homo sapiens, UniProt P10721, L576P).
T1 construct: purchased DiscoverX
T1 sequence (P10721 26-976 L576P): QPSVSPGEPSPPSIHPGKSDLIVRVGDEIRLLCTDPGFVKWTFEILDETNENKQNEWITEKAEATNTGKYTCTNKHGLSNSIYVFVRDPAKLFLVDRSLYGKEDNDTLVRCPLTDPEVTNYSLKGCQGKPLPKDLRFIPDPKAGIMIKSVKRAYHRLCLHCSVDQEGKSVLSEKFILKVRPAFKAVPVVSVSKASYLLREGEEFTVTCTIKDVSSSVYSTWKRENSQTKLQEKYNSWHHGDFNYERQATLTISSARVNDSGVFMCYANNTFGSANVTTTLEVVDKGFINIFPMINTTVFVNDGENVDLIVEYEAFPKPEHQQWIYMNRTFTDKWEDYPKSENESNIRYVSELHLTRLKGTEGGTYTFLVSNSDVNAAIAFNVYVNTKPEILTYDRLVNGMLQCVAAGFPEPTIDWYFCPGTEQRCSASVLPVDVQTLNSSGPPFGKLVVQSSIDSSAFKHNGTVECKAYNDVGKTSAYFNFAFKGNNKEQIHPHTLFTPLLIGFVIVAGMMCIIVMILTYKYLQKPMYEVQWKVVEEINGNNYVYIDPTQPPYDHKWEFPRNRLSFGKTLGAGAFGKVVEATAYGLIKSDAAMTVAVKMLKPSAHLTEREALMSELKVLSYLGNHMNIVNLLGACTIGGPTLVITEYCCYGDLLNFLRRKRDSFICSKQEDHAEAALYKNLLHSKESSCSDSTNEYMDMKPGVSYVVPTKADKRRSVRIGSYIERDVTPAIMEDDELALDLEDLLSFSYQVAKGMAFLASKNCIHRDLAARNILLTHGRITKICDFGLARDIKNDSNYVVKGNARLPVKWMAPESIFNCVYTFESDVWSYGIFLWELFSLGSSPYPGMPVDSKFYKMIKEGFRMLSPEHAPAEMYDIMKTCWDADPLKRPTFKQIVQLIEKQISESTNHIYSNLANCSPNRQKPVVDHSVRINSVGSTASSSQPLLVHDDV
To be noted: KIT (L576P); 1 uM; read-out: Percent Control (%). In short, it runs like this:
(§1)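 Activity was called for kinases showing % control under 35, calculated from compound signal relative to positive and negative controls. Each compound screened at 1 uM against the DiscoverX scanMAX panel.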

The target of experiment [2] is T2, scanMAX Kinase assay panel (Homo sapiens, UniProt P29320).
T2 construct: purchased DiscoverX
T2 sequence (P29320 21-983): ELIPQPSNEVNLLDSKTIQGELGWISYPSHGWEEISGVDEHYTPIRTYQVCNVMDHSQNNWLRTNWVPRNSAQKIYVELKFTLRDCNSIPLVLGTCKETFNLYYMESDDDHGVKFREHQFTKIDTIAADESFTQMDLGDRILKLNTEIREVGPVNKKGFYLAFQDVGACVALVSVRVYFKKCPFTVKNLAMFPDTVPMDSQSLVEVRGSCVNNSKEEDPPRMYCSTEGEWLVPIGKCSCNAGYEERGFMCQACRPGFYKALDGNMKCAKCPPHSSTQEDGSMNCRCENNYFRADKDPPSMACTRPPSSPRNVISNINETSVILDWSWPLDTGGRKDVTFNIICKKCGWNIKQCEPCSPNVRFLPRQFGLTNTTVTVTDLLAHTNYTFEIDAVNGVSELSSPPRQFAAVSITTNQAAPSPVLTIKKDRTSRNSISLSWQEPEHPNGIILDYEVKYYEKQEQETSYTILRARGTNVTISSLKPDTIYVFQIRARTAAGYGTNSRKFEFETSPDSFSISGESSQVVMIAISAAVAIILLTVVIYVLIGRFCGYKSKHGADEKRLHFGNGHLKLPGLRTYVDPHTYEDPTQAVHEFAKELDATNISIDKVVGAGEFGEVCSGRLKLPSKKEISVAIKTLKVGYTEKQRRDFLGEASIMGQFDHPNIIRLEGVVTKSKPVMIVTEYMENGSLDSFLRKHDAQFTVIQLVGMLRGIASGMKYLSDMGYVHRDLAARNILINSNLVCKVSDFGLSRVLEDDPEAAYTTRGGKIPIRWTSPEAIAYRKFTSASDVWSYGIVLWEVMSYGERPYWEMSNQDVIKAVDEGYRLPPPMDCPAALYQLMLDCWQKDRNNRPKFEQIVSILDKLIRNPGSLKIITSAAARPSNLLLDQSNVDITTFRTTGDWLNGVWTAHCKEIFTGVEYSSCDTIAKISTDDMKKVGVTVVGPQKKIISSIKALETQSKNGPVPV
To be noted: EPHA3; 1 uM; read-out: Percent Control (%). Put shortly: as §1

The target of experiment [3] is T3, scanMAX Kinase assay panel (Homo sapiens, UniProt Q04771).
T3 construct: purchased DiscoverX
T3 sequence (Q04771 21-509): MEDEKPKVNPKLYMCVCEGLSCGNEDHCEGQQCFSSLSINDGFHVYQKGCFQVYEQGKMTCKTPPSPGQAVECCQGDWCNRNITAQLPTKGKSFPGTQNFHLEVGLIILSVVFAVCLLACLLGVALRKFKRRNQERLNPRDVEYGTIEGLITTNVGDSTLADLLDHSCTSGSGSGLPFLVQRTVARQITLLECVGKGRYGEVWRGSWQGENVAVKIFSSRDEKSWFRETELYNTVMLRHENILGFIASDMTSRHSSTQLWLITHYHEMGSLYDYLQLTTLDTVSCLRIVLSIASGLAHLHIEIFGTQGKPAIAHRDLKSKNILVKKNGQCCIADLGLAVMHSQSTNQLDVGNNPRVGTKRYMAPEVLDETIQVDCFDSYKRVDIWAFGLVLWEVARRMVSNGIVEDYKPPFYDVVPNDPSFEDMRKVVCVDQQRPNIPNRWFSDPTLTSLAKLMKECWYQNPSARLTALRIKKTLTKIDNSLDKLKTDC
As to conditions: ACVR1; 1 uM; read-out: Percent Control (%). In short, it runs like this: as §1

Experiment [4] addresses T4, scanMAX Kinase assay panel (Homo sapiens, UniProt Q9P289).
T4 construct: purchased DiscoverX
To be noted: MST4; 1 uM; read-out: Percent Control (%). Put shortly:
as §1

The target of experiment [5] is T5, scanMAX Kinase assay panel (Homo sapiens, UniProt Q9UEE5).
T5 construct: purchased DiscoverX
T5 sequence (Q9UEE5 1-414): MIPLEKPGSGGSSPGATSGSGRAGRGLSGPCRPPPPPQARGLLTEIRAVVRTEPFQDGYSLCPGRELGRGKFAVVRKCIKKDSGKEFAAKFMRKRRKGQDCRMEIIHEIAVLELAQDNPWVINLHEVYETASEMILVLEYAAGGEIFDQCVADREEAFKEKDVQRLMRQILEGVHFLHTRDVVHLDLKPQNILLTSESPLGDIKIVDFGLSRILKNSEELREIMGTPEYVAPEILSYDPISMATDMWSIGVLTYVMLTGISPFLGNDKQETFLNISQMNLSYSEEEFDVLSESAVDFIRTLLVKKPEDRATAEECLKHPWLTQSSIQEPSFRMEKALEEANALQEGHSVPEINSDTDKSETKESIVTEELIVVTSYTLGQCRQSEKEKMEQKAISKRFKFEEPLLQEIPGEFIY
As to conditions: DRAK1; 1 uM; read-out: Percent Control (%). Put shortly: as §1

Experiment [6] has as its target T6, scanMAX Kinase assay panel (Homo sapiens, UniProt Q9Y463).
T6 construct: purchased DiscoverX
As to conditions: DYRK1B; 1 uM; read-out: Percent Control (%). Put shortly: as §1

Experiment [7] concerns the target T7, scanMAX Kinase assay panel (Homo sapiens, UniProt Q9Y6E0).
T7 construct: purchased DiscoverX
To be noted: MST3; 1 uM; read-out: Percent Control (%). In short, it runs like this:
as §1

T6 sequence (Q9Y463 whole entry): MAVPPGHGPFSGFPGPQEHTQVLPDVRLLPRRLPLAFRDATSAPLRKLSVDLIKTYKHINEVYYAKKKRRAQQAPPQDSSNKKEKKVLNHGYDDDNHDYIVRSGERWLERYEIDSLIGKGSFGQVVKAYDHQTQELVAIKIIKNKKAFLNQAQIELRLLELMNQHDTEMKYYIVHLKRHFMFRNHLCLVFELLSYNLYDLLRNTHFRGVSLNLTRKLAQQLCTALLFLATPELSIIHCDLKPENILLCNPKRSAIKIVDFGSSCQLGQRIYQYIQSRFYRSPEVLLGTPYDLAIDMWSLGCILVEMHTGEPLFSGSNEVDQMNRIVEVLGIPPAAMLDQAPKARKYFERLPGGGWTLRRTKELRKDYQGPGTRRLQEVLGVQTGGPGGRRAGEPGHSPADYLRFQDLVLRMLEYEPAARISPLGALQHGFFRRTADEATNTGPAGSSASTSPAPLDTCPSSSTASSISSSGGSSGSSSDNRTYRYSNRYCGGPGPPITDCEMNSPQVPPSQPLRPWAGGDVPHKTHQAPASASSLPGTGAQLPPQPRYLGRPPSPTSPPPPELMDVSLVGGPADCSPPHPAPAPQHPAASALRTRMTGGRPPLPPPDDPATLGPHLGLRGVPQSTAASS
T7 sequence (Q9Y6E0 whole entry): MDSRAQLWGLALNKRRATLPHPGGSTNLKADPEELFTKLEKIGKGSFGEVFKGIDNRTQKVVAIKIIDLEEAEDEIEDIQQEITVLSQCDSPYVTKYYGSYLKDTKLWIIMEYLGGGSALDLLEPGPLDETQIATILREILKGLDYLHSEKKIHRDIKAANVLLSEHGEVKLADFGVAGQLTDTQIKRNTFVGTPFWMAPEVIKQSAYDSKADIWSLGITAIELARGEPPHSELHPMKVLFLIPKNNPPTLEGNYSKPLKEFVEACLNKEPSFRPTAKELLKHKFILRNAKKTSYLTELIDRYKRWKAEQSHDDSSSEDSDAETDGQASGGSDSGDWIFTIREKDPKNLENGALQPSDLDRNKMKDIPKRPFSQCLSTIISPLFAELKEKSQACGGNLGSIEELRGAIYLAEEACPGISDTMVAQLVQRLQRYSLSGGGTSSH
T4 sequence (Q9P289 whole entry): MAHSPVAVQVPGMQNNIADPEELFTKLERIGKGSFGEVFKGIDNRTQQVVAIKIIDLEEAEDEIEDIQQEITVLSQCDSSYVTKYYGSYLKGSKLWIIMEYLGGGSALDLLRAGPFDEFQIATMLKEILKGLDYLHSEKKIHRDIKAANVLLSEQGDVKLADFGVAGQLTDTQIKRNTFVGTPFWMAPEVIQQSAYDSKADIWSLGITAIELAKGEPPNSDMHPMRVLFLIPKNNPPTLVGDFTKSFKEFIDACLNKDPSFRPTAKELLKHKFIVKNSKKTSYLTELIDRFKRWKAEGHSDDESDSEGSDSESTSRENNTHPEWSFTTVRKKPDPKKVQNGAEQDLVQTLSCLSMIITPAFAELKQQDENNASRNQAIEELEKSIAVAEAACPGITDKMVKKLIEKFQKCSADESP

Turning to `Cc1ccc(C(=O)Nc2ccc(CN3CCN(C)CC3)c(C(F)(F)F)c2)cc1C#Cc1cnc2c(Nc3cnn(C)c3)cccn12` [Example 1, 4-methyl-3-((8-((1-methyl-1H-pyrazol-4-yl)amino)imidazo[1,2-a]pyridin-3-yl)ethynyl)-N-(4-((4-methylpiperazin-1-yl)methyl)-3-(trifluoromethyl)phenyl)benzamide], the remaining binding at 1 µM was determined as 0% in experiment [1]; 19% in experiment [2]; 100% in experiment [3]; 55% in experiment [4]; 98% in experiment [5]; 93% in experiment [6]. Besides, the remaining binding at 1 µM in experiment [7] amounted to 62%.
Consider `Cc1cn(-c2cc(NC(=O)c3ccc(C)c(C#Cc4cnc5c(Nc6cnn(C)c6)cccn45)c3)cc(C(F)(F)F)c2)cn1` [Example 12, 4-methyl-N-(3-(4-methyl-1H-imidazol-1-yl)-5-(trifluoromethyl)phenyl)-3-((8-((1-methyl-1H-pyrazol-4-yl)amino)imidazo[1,2-a]pyridin-3-yl)ethynyl)benzamide], for which the remaining binding at 1 µM in experiment [1] turned out to be 17%; in experiment [2], 27%; in experiment [3] it was 100%; in experiment [4], 91%; in experiment [5] it was 100%; in experiment [6], 100%. The remaining binding at 1 µM in experiment [7] amounted to 86%.
For `Cc1ccc(NC(=O)C2(C(=O)Nc3ccc(F)cc3)CC2)cc1C#Cc1cnc2c(Nc3cnn(C(C)C)c3)cccn12` [Example 78], the remaining binding at 1 µM came to 0% in experiment [1]; 76% in experiment [2]; 100% in experiment [3]; 100% in experiment [4]; 100% in experiment [5]; 99% in experiment [6]. Also, the remaining binding at 1 µM in experiment [7] is 100%.
